Marks after values point to notes of the source that are not given here.
Legend:
AKATON tumor [1] = assay: AKATON tumor, MOC.tegafur and tegafur (Example 11, Exp. I, II); assay type: in vivo, mice
Description: 48 hours after transplantation of the AKATON tumor (adenocarcinoma of the small bowel), the mice of the Balb line received the substance MOC.tegafur in a dosage of 5 mg/kg of body weight by intraabdominal administration in 0.3 ml of a physiological solution. This took place on days 3, 5, 7 and 9. The animals were sacrificed on day 21 of the investigation.
48 hours after transplantation of the AKATON tumor, the mice of the Balb line received the substance MOC.tegafur by intravenous administration in 0.3 ml of a physiological solution. This took place on days 3, 5, 7 and 9. The animals were sacrificed on day 21 of the investigation.

sarcoma-180 tumor [2] = assay: Sarcoma-180 tumor, MOC.tegafur and tegafur (Example 11, Exp. III); assay type: in vivo, mice; conditions: for Tumor weight: control 3.9
Description: 48 hours after transplantation of the sarcoma-180 tumor, mice of the Balb line received the substance MOC.tegafur by intraabdominal administration in 0.3 ml of a physiological solution. Administration took place on days 3, 5 and 9. The animals were sacrificed on day 21 of the investigation.

[3] = in vivo; cited from earlier work
S-180 sarcoma tumor = assay: S-180 sarcoma in white crossbred mice (Example 7); assay type: in vivo; conditions: day 21
Description: After transplantation of the S-180 sarcoma tumor into white crossbred mice, the animals received the substance MOC.melphalan by intraabdominal administration in a dosage of 1 mg/kg in 0.3 ml of 10% DMSO solution on days 3, 5 and 9. The animals were sacrificed on day 21 of the investigation and underwent histological, morphological examination (table 11).
(§1) After transplantation of the S-180 sarcoma tumor into white crossbred mice, the animals received MOC.melphalan and melphalan by intraabdominal administration in a dosage of 5 mg/kg in 0.3 ml of 10% DMSO solution on days 3, 5, 7 and 9. The animals were sacrificed on day 21 of the investigation and underwent histological, morphological examination (table 12).
as §1, with “2, 4, 6, 8” for “3, 5, 7”, “10.” for “9.”, “13).” for “12).”

C-180 sarcoma = assay: Antitumor activity for C-180 sarcoma, intraperitoneal; assay type: in vivo; conditions: 5 mg/kg intraperitoneal
Description: 4. Antitumor Activity for C-180 Sarcoma
The results of series of experiments in which the stated active ingredient was administered intra-peritoneally in the stated dosage in physiological saline solution are shown in table 5 below.

sarcoma-180 tumor [4] = assay: Sarcoma-180 tumor tissue changes and mitoses (Example 12); assay type: in vivo, mice; conditions: 5 mg/kg intraabdominal days 3, 5, 9
Description: The sarcoma-180 tumor was transplanted with a weight of 20 to 22 g into sexually mature crossbred mice. 48 hours after the transplantation of the sarcoma-180 tumor, the mice received the substance MOC.tegafur in a dosage of 5 mg/kg of body weight by intraabdominal administration in 0.9% NaCl solution. Administration took place on days 3, 5 and 9.
On day 21, the mice were sacrificed by decapitation and the tumor tissue was removed for histological examination. The antitumor activity of MOC.tegafur was provisionally determined.
In the investigation, the activity of the tumor tissue was determined in animals which received the product MOC.tegafur and in untreated animals in the control. The number of mitoses and the mitosis index was calculated. The average number of mitoses in the investigation group was 2.55% and in the control animal group was 11.2%. The mitosis index in these animal groups was 0.9 and 4.75. On examination under the microscope, an increase in the number of pathological metaphases and anaphases was observed.

B-16 melanoma tumor = assay: B-16 melanoma tumor, MOC.melphalan and MOC.tegafur (Example 13); assay type: in vivo, mice; conditions: Dose 5 mg/kg (table), day 16
Description: MOC.tegafur was administered in a physiological solution. The animals in the control group likewise received administration of the solutions (without products). On day 16, the mice were sacrificed by decapitation, tumor tissue was removed for histological examination, and the tumor was investigated for antitumor activity (table 23). The tumors were fixed with 10% formalin, which was followed by embedding in paraffin. The section thickness of 5 μm were stained with hematoxylin-eosinome. The microscopy was carried out with a Leica Galen microscope.

AKATON tumor [5] = assay: AKATON tumor transplanted after administration of MOC.tegafur; assay type: in vivo; conditions: 5 mg/kg i.v. 4 days in succession before transplantation
Description: The product was administered intravenously in a physiological solution of 0.3 ml on 4 days in succession (table 20). The AKATON tumor was then transplanted.

[6] = system: tumor cell cultures (KML); assay: Suppression of cell proliferation in tumor cell cultures (KML); assay type: cell-based, mice; conditions: incubation 24 hours
Description: The effect of the substances MOC.melphalan and MOC.tegafur of the invention on the proliferative activity, morphology and protein synthesis was investigated on tumor cell cultures (KML). This took place with the mice separated out of the melanoma-16 line. 80 000 cells/ml were distributed in 3 ml of DMEM with the addition of embryonic calf serum, 200 μ/mol of glutamine and antibiotic. After cultivation of the cells at a temperature of 37° C. for 24 hours (logarithmic cell growth phase), the MOC substances were added in the concentration of 10 and 100 μg/ml. After incubation for 24 hours, the number of live cells was determined. In parallel, the fixed specimens of the cells were prepared for morphological analysis.

[7] = Solubility and stability in air
[8] = system: tumor cell cultures (KML); assay: Protein synthesis: inclusion of 3H-amino acids in tumor cell cultures; assay type: cell-based, mice; conditions: 50 μg/ml, incubation 24 hours
Description: The effect of the substances on protein synthesis is determined with the aid of the suppression stage through the inclusion of radioactive precursors of amino acids (totaled mixture of ^3H-amino acids). 1 million cells in a “log phase” were selected for this. The complexes were introduced in a dosage of 50 μg/ml and, in parallel, the amino acids with an activity of 10 mCi/ml were introduced into 10 ml bottles. After incubation for 24 hours, the cells were washed out from the cultivation nutrient medium, and a lysis (disruption) was carried out. The radioactivity of the proteins was determined in a […] (table 25).

[9] = 3 mg/kg intraabdominal days 3, 5, 9, day 21
[10] = 5 mg/kg intraabdominal days 3, 5, 9, day 21

## O=c1[nH]c(=O)n(C2CCCO2)cc1F (stereo not drawn) [Tegafur, 5-fluoro-1-(tetrahydro-2-furyl)uracil, reference compound]
AKATON tumor [1]; 250 mg/kg intravenous four times
  Percent inhibition: 51%
AKATON tumor [1]; 250 mg/kg intravenous four times, control 4.3
  Tumor weight: 2.1 g
AKATON tumor [1]; 250 mg/kg, four times, intraabdominal experiment
  Percent inhibition: 54.5%
AKATON tumor [1]; 250 mg/kg, four times, intraabdominal experiment, control 4.4
  Tumor weight: 1.95 g
sarcoma-180 tumor [2]; 250 mg/kg three times
  Percent inhibition: 20.5%
  Tumor weight: 3.1 g
[3]
  LD50: 650 mg/kg

## N[C@@H](Cc1ccc(N(CCCl)CCCl)cc1)C(=O)O [Melphalan, 4-[bis(2-chloroethyl)amino]-L-phenylalanine, reference compound]
S-180 sarcoma tumor; 5 mg/kg intraabdominal days 2, 4, 6, 8, 10
  Percentage inhibition: 38%
S-180 sarcoma tumor; 5 mg/kg intraabdominal days 2, 4, 6, 8, 10, control 3.9 ± 0.5
  Average tumor mass: 2.4 ± 1.1 g
S-180 sarcoma tumor; 5 mg/kg intraabdominal days 3, 5, 7, 9
  Percentage inhibition: 49%
S-180 sarcoma tumor; 5 mg/kg intraabdominal days 3, 5, 7, 9, control 2.8
  Average tumor mass: 1.4 g
C-180 sarcoma
  % inhibition: 49%
C-180 sarcoma; control 2.8
  Mass of the tumor: 2.4 ± 1.1 g

## Cu(C5H7O2)2.C8H9O3N2F [MOC.tegafur]
sarcoma-180 tumor [4]; control 4.75
  mitosis index: 0.9
sarcoma-180 tumor [4]; control 11.2%
  average number of mitoses: 2.55%
sarcoma-180 tumor [4]; day 21, provisionally determined
  percent inhibition of tumor proliferation: 96.4%
B-16 melanoma tumor; control 4.22
  MI (mitosis index): 0.86
B-16 melanoma tumor; intraabdominal days 3, 5, 9
  Percent inhibition: 65.66%
B-16 melanoma tumor; intraabdominal days 3, 5, 9, control 3.22
  Tumor weight: 1.13 g
AKATON tumor [5]
  Percent inhibition of tumor volume: 61.3* %
  Percent inhibition of tumor weight: 50* %
AKATON tumor [5]; control 4.46
  Tumor weight: 2.20 g
AKATON tumor [5]; control 7.90
  Size of the tumor: 3.06 cm^3
[6]; 10 μg/ml
  Suppression of growth cells: 32%
[6]; 100 μg/ml
  Suppression of growth cells: 100%
[7]; in ether and chloroform
  solubility: insoluble
[7]; in water, physiological solution, methanol, ethanol, DMSO and Twin-80
  solubility: readily soluble
AKATON tumor [1]; 5 mg/kg intraabdominal days 3, 5, 7, 9, day 21
  Percent inhibition: 86%
AKATON tumor [1]; 5 mg/kg intraabdominal days 3, 5, 7, 9, day 21, control 4.4
  Tumor weight: 0.61 g
AKATON tumor [1]; 5 mg/kg intravenous days 3, 5, 7, 9, day 21
  Percent inhibition: 80%
AKATON tumor [1]; 5 mg/kg intravenous days 3, 5, 7, 9, day 21, control 4.3
  Tumor weight: 0.86 g
[8]
  Suppression of amino acid inclusion: 77%
sarcoma-180 tumor [2]; [9]
  Percent inhibition: 89%
  Tumor weight: 0.43 g
sarcoma-180 tumor [2]; [10]
  Percent inhibition: 95%
  Tumor weight: 0.195 g

Reference: patent US20060052357A1, “Organometallic anti-tumour agent” (priority 2001, published 2006)
